In PubChem BioAssay (NCI):
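How tested: cells in 96-well plates exposed to compound for 48 hours at five concentrations. The concentration for 50% growth inhibition is given as GI50. TGI marks complete inhibition of growth.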

These compounds were tested on OVCAR-8 ovarian (assay: inhibition of tumour cell growth, NCI panel, 48 h).

| Structure (SMILES) | GI50 [µM] | TGI [µM] |
| --- | --- | --- |
| O=C1/C(=C/N2N=C(c3ccc4ccccc4c3)CC2c2ccccc2O)SC(=S)N1c1cccnc1 (stereo not given) | 2.36 | > 100 |
| NC(N)=N/N=C(\N=Nc1ccccc1)c1ccc(Cl)cc1 | 2.81 | 9.58 |
| Nc1ccc(C2=N/C(=C\c3cccc(N)c3)C(=O)O2)cc1 | – | > 100 |
| c1ccc2c(c1)c1ccccc1c1ccccc21 | > 100 | > 100 |
| NCCN.O=C([O-])[O-].O=C([O-])[O-].[Co+3].[K+] | > 100 | > 100 |
| NC(=O)CNc1ccc([As]=[As]c2ccc(NCC(N)=O)cc2)cc1 (stereo not given) | 4.65 | > 100 |

Each compound was assayed on MOLT-4 leukemia (assay: inhibition of tumour cell growth, NCI panel, 48 h).

| Structure (SMILES) | TGI [µM] | GI50 [µM] |
| --- | --- | --- |
| CCc1cccc(C)c1NC(=O)CC1C(=O)Nc2ccccc2S1=O (stereo not given) | > 100 | – |
| Cc1ccc(N2C(=O)N(c3ccc(C)cc3)C3(SC=NN3C)C2=O)cc1 (stereo not given) | > 100 | – |
| O=C1c2ccc3c4ccccc4n(-c4ccccc4)c3c2C(=O)N1c1ccc(Cl)cc1 | > 100 | – |
| Cc1ccc2c(c1-c1ccccc1)C(=O)OC2 | > 100 | – |
| NC(CCc1ncc(C(=O)O)s1)C(=O)O (stereo not given) | > 100 | – |
| CSc1ccc2c(cc1=O)[C@@H](NC(=O)c1cc(O)c(O)c(O)c1)CCc1cc(O)c(O)c(O)c1-2 | 45.6 | – |
| COc1cc(-c2nnc3n2NC=C(C(=O)O)S3)cc(OC)c1OC | > 100 | – |
| C[P+](C)(C)c1ccccc1 | > 100 | – |
| O=C1c2ccccc2C(=O)N1C/C=N/NS(=O)(=O)c1ccc(Br)cc1 | > 100 | – |
| COc1cc(/C=C/C(=O)Oc2ccccc2)ccc1C(=O)O/C=C/c1ccccc1 | > 100 | – |
| NC(=O)c1cn(Cc2ccccc2)c(=O)n1Cc1ccccc1 | > 100 | – |
| CCOC(=O)C(C)(c1c(C)[nH]c2ccccc12)c1c(C)[nH]c2ccccc12 | 42.9 | – |
| Cc1c(Cl)cccc1NC(=O)c1cccc([N+](=O)[O-])c1O | 46.7 | – |
| CC1COS(=O)O1 (stereo not given) | > 100 | – |
| CC1CCC(C(C)(C)c2ccccc2)C(=O)C1 (stereo not given) | > 100 | – |
| O=C1CC2CCN(C(=O)c3ccccc3)CC2CCN1 (stereo not given) | > 100 | – |
| O=C1C=CC(=CC=C2C=CN(CCCCCCCCCCC(=O)NCCCCCCCCCCCC(=O)O)C=C2)C=C1 | > 100 | – |

| Structure (SMILES) | TGI [µM] | GI50 [µM] |
| --- | --- | --- |
| CNC(C)[C@H]1CCC2C3CC=C4C(=O)[C@@H](NC(=O)C=C(C)C)CC[C@]4(C)C3CC[C@@]21C (stereo not given in full) | 3.89 | 1.27 |
| Clc1nc(Cl)c2ncn(Cc3ccccc3Cn3cnc4c(Cl)nc(Cl)nc43)c2n1 | 5.13 | 1.99 |
| C1COCCSC2=C(SCCO1)SC(=C1SC3=C(SCCOCCOCCS3)S1)S2 | > 100 | – |
| O=C(Nc1ccc(Cl)cc1)Nc1nccs1 | 84.2 | 4.8 |
| CC(C)(C)c1cc(C(=O)/C=C/c2ccc(C(=O)O)cc2)cc(C(C)(C)C)c1 | 8.31 | – |
| COc1cc(/C=N\O[Si](C)(C)C(C)(C)C)ccc1O[Si](C)(C)C(C)(C)C | > 100 | – |
| Cc1noc2c1-c1ccccc1C(c1ccc(Cl)cc1)=N[C@H]2CC(N)=O | > 100 | 7.71 |
| O=C(N/N=C/c1ccc(O)cc1O)c1cccnc1 | > 100 | 3.1 |
| O=C(NNc1cnccn1)c1nc2cc(F)ccc2n2cccc12 | > 100 | 0.34 |
| NCCCOc1cc(Cl)ccc1NC(=O)c1cc2ccccc2cc1OCCCN | 3.25 | 1.51 |
| NCCCOc1cc2ccccc2cc1C(=O)NCCCOc1cc2ccccc2cc1C(=O)Nc1ccc(Cl)cc1O | 1.54 | 0.314 |
| O=C1C2[C@@H](C(=O)N1c1ccc(Br)cc1)C13C(=CC2([N+](=O)[O-])[C@@H]2C(=O)N(c4ccc(Br)cc4)C(=O)[C@@H]21)c1ccccc1N3c1ccccc1 (stereo not given in full) | > 100 | – |
| CCOC(=O)C1=C(N)Oc2c(sc3c(C)cccc23)C1c1ccc(F)cc1 (stereo not given) | 17.5 | 1.88 |
| O=C1/C(=C/N2N=C(c3ccc4ccccc4c3)CC2c2ccccc2O)SC(=S)N1c1cccnc1 (stereo not given) | > 100 | 2.46 |
| NC(N)=N/N=C(\N=Nc1ccccc1)c1ccc(Cl)cc1 | 6.16 | 2.35 |
| Nc1ccc(C2=N/C(=C\c3cccc(N)c3)C(=O)O2)cc1 | > 100 | – |
